Test results from ChEMBL document CHEMBL1146992, “Identification of potent phenyl imidazoles as opioid receptor agonists” (Bioorg Med Chem Lett, 2006).

Assays:
[1] = molecular target: Delta-type opioid receptor (Rattus norvegicus, UniProt P33533); assay: Displacement of [3H]DPDPE from delta opioid receptor in rat brain; assay type: tissue-based
[2] = molecular target: Opioid receptors; mu & delta (Rattus norvegicus) (UniProt P33533+P33535); assay: Selectivity for delta opioid receptor over mu opioid receptor; assay type: protein assay
Mu-type opioid receptor [3] = molecular target: Mu-type opioid receptor (Rattus norvegicus, UniProt P33535); assay: Displacement of [3H]DAMGO from mu opioid receptor in rat brain; assay type: tissue-based
[4] = molecular target: Delta-type opioid receptor (Mus musculus, UniProt P32300); assay: Activity against delta opioid receptor by stimulation of [35S]GTP-gamma-S binding in CHO-hgamma cells; assay type: functional, cell-based
Mu-type opioid receptor [5] = molecular target: Mu-type opioid receptor (Cavia porcellus, UniProt P97266); assay: Activity against mu opioid receptor by stimulation of [35S]GTP-gamma-S binding in CHO-hgamma cells; assay type: functional, cell-based
Chain of Mu-type opioid receptor (Cavia porcellus, UniProt P97266) (P97266 whole entry): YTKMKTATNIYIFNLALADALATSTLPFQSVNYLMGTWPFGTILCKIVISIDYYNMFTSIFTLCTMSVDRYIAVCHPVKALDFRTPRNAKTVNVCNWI

Chain of Mu-type opioid receptor (Rattus norvegicus, UniProt P33535) (P33535 whole entry): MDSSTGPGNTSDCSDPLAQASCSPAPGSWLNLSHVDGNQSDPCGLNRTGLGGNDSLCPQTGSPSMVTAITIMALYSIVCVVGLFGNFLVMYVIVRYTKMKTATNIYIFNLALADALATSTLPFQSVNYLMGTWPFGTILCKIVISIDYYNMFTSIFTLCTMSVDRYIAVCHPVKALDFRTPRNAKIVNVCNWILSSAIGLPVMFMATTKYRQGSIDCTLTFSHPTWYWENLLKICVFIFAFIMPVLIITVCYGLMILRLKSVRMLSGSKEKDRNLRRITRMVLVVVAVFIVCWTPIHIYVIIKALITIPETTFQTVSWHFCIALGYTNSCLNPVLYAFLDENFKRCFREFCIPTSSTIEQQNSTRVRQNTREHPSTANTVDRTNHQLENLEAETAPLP
Chain of Delta-type opioid receptor (Rattus norvegicus, UniProt P33533) (P33533 whole entry): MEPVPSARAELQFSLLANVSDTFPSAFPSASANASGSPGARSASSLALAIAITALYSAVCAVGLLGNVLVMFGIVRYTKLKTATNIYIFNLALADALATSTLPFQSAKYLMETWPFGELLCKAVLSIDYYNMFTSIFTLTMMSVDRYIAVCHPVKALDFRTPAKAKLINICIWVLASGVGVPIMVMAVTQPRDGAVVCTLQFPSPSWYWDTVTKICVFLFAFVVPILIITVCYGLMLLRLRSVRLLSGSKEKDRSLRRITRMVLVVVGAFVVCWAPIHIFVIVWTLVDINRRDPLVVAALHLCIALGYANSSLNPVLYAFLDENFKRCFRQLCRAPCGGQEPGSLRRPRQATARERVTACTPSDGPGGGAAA
Chain of Opioid receptors; mu & delta (Rattus norvegicus) (P33533 whole entry, looked up): as the sequence (P33533 whole entry) above
Chain of Opioid receptors; mu & delta (Rattus norvegicus) (P33535 whole entry, looked up): as the sequence (P33535 whole entry) above
Chain of Delta-type opioid receptor (Mus musculus, UniProt P32300) (P32300 whole entry): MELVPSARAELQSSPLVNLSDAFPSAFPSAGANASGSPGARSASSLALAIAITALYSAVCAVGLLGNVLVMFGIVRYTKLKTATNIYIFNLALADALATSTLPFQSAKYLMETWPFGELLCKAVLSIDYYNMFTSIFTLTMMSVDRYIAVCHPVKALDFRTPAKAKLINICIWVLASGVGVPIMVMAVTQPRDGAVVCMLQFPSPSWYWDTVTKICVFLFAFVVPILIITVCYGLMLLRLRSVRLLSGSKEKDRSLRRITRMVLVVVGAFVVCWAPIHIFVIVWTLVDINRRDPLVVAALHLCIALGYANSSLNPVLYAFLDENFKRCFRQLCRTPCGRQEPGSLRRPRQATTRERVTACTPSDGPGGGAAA

| SMILES | Ki [1] | Ratio Ki [2] | Ki (Mu-type opioid receptor [3]) | EC50 [4] | EC50 (Mu-type opioid receptor [5]) |
| --- | --- | --- | --- | --- | --- |
| CC(=O)c1ccc(C[C@H](N)C(=O)N2Cc3ccccc3C[C@H]2c2nc(-c3ccccc3)c[nH]2)cc1 | 30 nM | 14 |  |  |  |
| N[C@@H](Cc1ccc(S(N)(=O)=O)cc1)C(=O)N1Cc2ccccc2C[C@H]1c1nc(-c2ccccc2)c[nH]1 |  | 3.4 |  |  |  |
| Cc1cc(O)cc(C)c1C[C@H](N)C(=O)N1Cc2ccccc2C[C@H]1c1nc(C)c(-c2ccccc2)[nH]1 |  | 3.2 |  |  |  |
| N[C@@H](Cc1ccc(C(=O)O)cc1)C(=O)N1Cc2ccccc2C[C@H]1c1nc(-c2ccccc2)c[nH]1 | 5200 nM | 1.1 | 5800 nM |  |  |
| N[C@@H](Cc1ccc(O)cc1)C(=O)N1CCCC[C@H]1c1nc(-c2ccccc2)c[nH]1 | 198 nM | 0.02 | 3.8 nM |  |  |
| NC(=O)c1ccc(C[C@H](N)C(=O)N2Cc3ccccc3C[C@H]2c2nc(-c3ccccc3)c[nH]2)cc1 | 1.3 nM | 18.4 | 23 nM | 3 nM | 155 nM |
| N[C@@H](Cc1ccc(CO)cc1)C(=O)N1Cc2ccccc2C[C@H]1c1nc(-c2ccccc2)c[nH]1 | 466 nM | 2 | 912 nM |  |  |
| Cc1cc(C(N)=O)cc(C)c1C[C@H](N)C(=O)N1Cc2ccccc2C[C@H]1c1nc(-c2ccccc2)c[nH]1 |  |  | 1.4 nM | 22 nM | 161 nM |
| N[C@@H](Cc1ccccc1)C(=O)N1Cc2ccccc2C[C@H]1c1nc(-c2ccccc2)c[nH]1 | 266 nM | 1.7 | 443 nM |  |  |
| Cc1cc(O)cc(C)c1C[C@H](N)C(=O)N1Cc2ccccc2C[C@H]1c1nc(-c2ccccc2)c[nH]1 | 0.1 nM | 3.2 | 0.3 nM | 0.9 nM | 27 nM |
| Cc1cc(C(N)=O)cc(C)c1C[C@H](N)C(=O)N1CCCC[C@H]1c1nc(-c2ccccc2)c[nH]1 | 14 nM |  | 0.13 nM | 135 nM | 9 nM |
| N[C@@H](Cc1ccc(Cl)cc1)C(=O)N1Cc2ccccc2C[C@H]1c1nc(-c2ccccc2)c[nH]1 |  | 4.6 |  |  |  |
| Cc1[nH]c([C@@H]2Cc3ccccc3CN2C(=O)[C@@H](N)Cc2ccccc2)nc1-c1ccccc1 | 236 nM | 8 | 1830 nM |  |  |
| CS(=O)(=O)Nc1ccc(C[C@H](N)C(=O)N2Cc3ccccc3C[C@H]2c2nc(-c3ccccc3)c[nH]2)cc1 | 342 nM | 1 | 356 nM |  |  |
| NC(=O)c1ccc(C[C@H](N)C(=O)N2CCCC[C@H]2c2nc(-c3ccccc3)c[nH]2)cc1 |  | 0.02 | 1.2 nM | 730 nM | 100 nM |
| N[C@@H](Cc1ccccc1)C(=O)N1CCCC[C@H]1c1nc(-c2ccccc2)c[nH]1 | 1130 nM | 0.02 | 18 nM |  |  |
| CC(=O)Nc1ccc(C[C@H](N)C(=O)N2Cc3ccccc3C[C@H]2c2nc(C)c(-c3ccccc3)[nH]2)cc1 |  | 6 |  |  |  |
| Cc1cc(O)cc(C)c1C[C@H](N)C(=O)N1CCCC[C@H]1c1nc(-c2ccccc2)c[nH]1 | 1.9 nM | 0.03 | 0.05 nM | 37 nM | 2 nM |
| Cc1[nH]c([C@@H]2Cc3ccccc3CN2C(=O)[C@@H](N)Cc2ccc(F)cc2)nc1-c1ccccc1 |  | 19 |  |  |  |
| Cc1[nH]c([C@@H]2CCCCN2C(=O)[C@@H](N)Cc2ccc(O)cc2)nc1-c1ccccc1 |  | 0.1 |  | 500 nM | 142 nM |
| N[C@@H](Cc1ccc(O)cc1)C(=O)N1Cc2ccccc2C[C@H]1c1nc(-c2ccccc2)c[nH]1 |  | 63 |  | 19 nM |  |
| Cc1[nH]c([C@@H]2Cc3ccccc3CN2C(=O)[C@@H](N)Cc2ccc(N)cc2)nc1-c1ccccc1 |  | 9 |  |  |  |
| Cc1cc(O)cc(C)c1C[C@H](N)C(=O)N1Cc2ccccc2C[C@H]1c1nc(-c2ccccc2)c(C)[nH]1 | 0.1 nM |  | 0.3 nM |  |  |
| COc1ccc(C[C@H](N)C(=O)N2Cc3ccccc3C[C@H]2c2nc(C)c(-c3ccccc3)[nH]2)cc1 |  | 6.4 |  |  |  |
| Cc1[nH]c([C@@H]2Cc3ccccc3CN2C(=O)[C@@H](N)Cc2ccc(O)cc2)nc1-c1ccccc1 |  | 75 |  |  |  |
| Cc1[nH]c([C@@H]2Cc3ccccc3CN2C(=O)[C@@H](N)Cc2ccc(C#N)cc2)nc1-c1ccccc1 | 752 nM | 1.8 | 1340 nM |  |  |
